Experimental data from patent US20100016353A1, “BENZOIMIDAZOLE DERIVATIVES USEFUL AS ANTIPROLIFERATIVE AGENTS” (priority 2004, published 2010).

Columns and labels:
[1] = Metabolite identification in dog bile after administration of parent compound; format: in vivo, beagle dogs; details: for Excretion in bile: dog, after 5.0 mg/kg oral administration of parent; for Relative Abundance of metabolite, Dog Bile (IV): only 2-4 hr samples analyzed, cannot distinguish between M6 and M7
[2] = biological target: T1, microsomal epoxide hydrolase (Homo sapiens, UniProt P07099); assay: Microsomal epoxide hydrolase inhibitor studies; format: in vitro ADME
T1 sequence (P07099 1-455): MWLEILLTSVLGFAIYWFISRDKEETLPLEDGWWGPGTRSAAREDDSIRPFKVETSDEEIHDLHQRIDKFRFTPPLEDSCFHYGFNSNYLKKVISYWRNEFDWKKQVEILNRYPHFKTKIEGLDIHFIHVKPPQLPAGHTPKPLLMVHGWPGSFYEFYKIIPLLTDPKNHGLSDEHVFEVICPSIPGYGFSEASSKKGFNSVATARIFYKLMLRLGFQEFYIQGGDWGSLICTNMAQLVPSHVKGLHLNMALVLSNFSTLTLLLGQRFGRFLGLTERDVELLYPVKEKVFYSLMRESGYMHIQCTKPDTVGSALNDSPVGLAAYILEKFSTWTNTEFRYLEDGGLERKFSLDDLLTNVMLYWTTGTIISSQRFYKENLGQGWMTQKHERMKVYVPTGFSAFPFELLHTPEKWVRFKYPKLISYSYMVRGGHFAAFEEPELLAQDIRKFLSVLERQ

[3] = Metabolite identification, human liver cytosol incubation of parent compound; format: in vitro ADME; details: for Relative Abundance of metabolite, Human Liver Cytosol: parent incubated one hour; on Relative Abundance of metabolite, Human Liver Cytosol: key: −: metabolite not observed; +: minor metabolite; +++: major metabolite
Protocol: (§1) Cytosol: 1-{2-[5-(3-Methyl-oxetan-3-ylmethoxy)-benzoimidazol-1-yl]-quinolin-8-yl}-piperidin-4-ylamine (10 μM) was incubated and prepared for analysis. Cryopreserved human liver cytosol from Tissue Transformation Technologies Inc., Edison, N.J., (lot: HHC-0255, ˜20 mg/mL) and dog liver cytosol (˜35 mg/mL) were thawed on ice immediately before the incubation. The cytosol was diluted 10-fold in 100 mM potassium phosphate buffer (pH 7.4) before addition of 1-{2-[5-(3-Methyl-oxetan-3-ylmethoxy)-benzoimidazol-1-yl]-quinolin-8-yl}-piperidin-4-ylamine (final concentration […]) for a final incubation volume of 2 mL. Samples were incubated for one hour in a 37° C. water bath, then quenched with two volumes of acetonitrile. Samples were vortexed and subsequently centrifuged at 3000 rpm. Samples were prepared for analysis by centrifugation at 3000 rpm to pellet the precipitated proteins and by evaporating the supernatant to dryness. The samples were reconstituted in 300 μL 50/50 10 mM ammonium formate, pH 3.0/acetonitrile. A 10 μL reconstituted aliquot was analyzed by LC/MS/MS. 1-{2-[5-(2-Methoxy-ethoxy)-benzoimidazol-1-yl]-quinolin-8-yl}-piperidin-4-ylamine was incubated in human and dog liver cytosol under the same conditions as a positive control.
(§2) Separation of 1-{2-[5-(3-Methyl-oxetan-3-ylmethoxy)-benzoimidazol-1-yl]-quinolin-8-yl}-piperidin-4-ylamine and its metabolites in all samples was accomplished on a Zorbax SB-C18 reverse phase column (5 μm, 4.6×150 mm) at a flow rate of 1.0 mL/min. The mobile phase consisted of 10 mM ammonium formate, pH 3.0, (A) and acetonitrile (B). After injection of the sample, the column was washed with 10% B for 5 minutes followed by resolution of the metabolites with a linear gradient from 10% to 50% B over a 20-minute period. A 5-minute wash with 90% B followed by a 7-minute re-equilibration to 10% B was used between subsequent injections.
(§3) All Samples were analyzed by a Finnigan TSQ7000 mass spectrometer operated in positive ion mode with in-line ultraviolet detection (Shimadzu, λ=254 nm). Ionspray voltage and capillary temperature were maintained at 4.5 kV and 350 degrees Celsius, respectively. Product ion spectra were obtained with CID of 35 V; further fragmentation was obtained by conducting product ion scans with source CID of 10 V. Neutral loss scans of 176 (for glucuronide detection) were conducted with CID of 30 V.
(§4) The metabolites were initially identified by molecular ion (Q1) scans of the sample mixture. Potential metabolites were characterized by fragmentation of the metabolite molecular ions and comparison of the resulting fragmentation patterns with the 1-{2-[5-(3-Methyl-oxetan-3-ylmethoxy)-benzoimidazol-1-yl]-quinolin-8-yl}-piperidin-4-ylamine product mass spectrum.

[4] = Metabolite identification, human cryopreserved hepatocyte incubation of parent compound; format: in vitro ADME; details: parent incubated up to four hours
Protocol: (§5) Hepatocytes: Rat, dog and human cryopreserved hepatocyte incubations were performed using 1-{2-[5-(3-Methyl-oxetan-3-ylmethoxy)-benzoimidazol-1-yl]-quinolin-8-yl}-piperidin-4-ylamine. Rat, dog and human cryopreserved hepatocytes were obtained from In Vitro Technologies, Baltimore, Md. and suspended in Williams E Media, available from Fisher-Scientific, to a final cell density of 1×10^6 viable cells/mL. 1-{2-[5-(3-Methyl-oxetan-3-ylmethoxy)-benzoimidazol-1-yl]-quinolin-8-yl}-piperidin-4-ylamine was incubated in these hepatocyte suspensions at a final concentration of […] at 37° C. in a shaking water bath for up to four hours. A 5 mL aliquot was removed from each incubation mixture immediately and at four hours after addition of substrate. The samples were prepared for analysis by mixing with two volumes of acetonitrile followed by centrifugation to pellet precipitated proteins. The […] were evaporated to dryness before analysis. Dried samples were reconstituted in 300 μL 50/50 10 mM ammonium formate, pH 3.0/acetonitrile, and 10 μL aliquots were analyzed by LC/MS/MS. 1-{2-[5-(2-Methoxy-ethoxy)-benzoimidazol-1-yl]-quinolin-8-yl}-piperidin-4-ylamine was incubated in dog hepatocytes under the same conditions as a positive control.
as §2, §3, §4

[5] = Metabolite identification, dog cryopreserved hepatocyte incubation of parent compound; format: in vitro ADME; details: parent incubated up to four hours
Protocol: as §5, §2, §3, §4

[6] = Metabolite identification, dog liver cytosol incubation of parent compound; format: in vitro ADME; details: for Relative Abundance of metabolite, Dog Liver Cytosol: parent incubated one hour
Protocol: as §1, §2, §3, §4

[7] = Metabolite identification, rat cryopreserved hepatocyte incubation of parent compound; format: in vitro ADME; details: parent incubated up to four hours
Protocol: as §5, §2, §3, §4

[8] = Metabolite identification in dog plasma after intravenous administration of parent compound; format: in vivo, beagle dogs; details: for Relative Abundance of metabolite, Dog Plasma (IV): 2.0 mg/kg intravenous parent, 20 min, 40 min and 1 h samples
Protocol: Dog Plasma and Bile: Dog plasma was collected from beagle dogs following intravenous administration (2.0 mg/kg) of 1-{2-[5-(3-Methyl-oxetan-3-ylmethoxy)-benzoimidazol-1-yl]-quinolin-8-yl}-piperidin-4-ylamine. A 200 μL plasma sample from each dog was pooled for each timepoint. Three volumes of acetonitrile were added to the pooled plasma samples to precipitate proteins. Following centrifugation, the supernatant was recovered and dried at 37° C. under nitrogen and reconstituted in 150 μL 50/50 10 mM ammonium formate, pH 3.0/acetonitrile. A 20 μL aliquot was analyzed by LC/MS/MS.
as §2, §3, §4

[9] = Metabolite identification, rat liver microsome incubation of parent compound; format: in vitro ADME; details: for Relative Abundance of metabolite, Rat Liver Microsomes: parent incubated 1 h with NADPH; for Relative Abundance of metabolite, RLM-NADPH ctrl: rat liver microsomes, control without NADPH
Protocol: (§6) Microsomes: 1-{2-[5-(3-Methyl-oxetan-3-ylmethoxy)-benzoimidazol-1-yl]-quinolin-8-yl}-piperidin-4-ylamine (10 μM) was incubated in mouse, rat, dog, monkey and human liver microsomes and collected for analysis. 1-{2-[5-(3-Methyl-oxetan-3-ylmethoxy)-benzoimidazol-1-yl]-quinolin-8-yl}-piperidin-4-ylamine, (final concentration […]) was incubated in mouse (0.45 mg/mL protein), rat ([…] protein), dog ([…] protein), monkey (0.42 mg/mL protein) and human liver microsomes (1.56 mg/mL protein) containing MgCl2 (10 mM) and NADPH (1 mM) in potassium phosphate buffer (100 mM, pH 7.4) at 37° C. The total volume of each reaction mixture was 5 mL containing a total cytochrome P450 concentration of […]. Each mixture was preincubated for 10 minutes before addition of NADPH to initiate the reaction. The reaction was stopped one hour after addition of NADPH by adding two volumes of acetonitrile to the reaction mixture. […] Samples were prepared for analysis by centrifugation at 300 rpm to pellet the precipitated proteins and by evaporating the supernatant to dryness. The dried […] were reconstituted in 600 μL 50/50 10 mM ammonium formate, pH 3.0/acetonitrile, and 10 μL aliquots were analyzed by liquid chromatography and mass spectroscopy (LC/MS/MS). 1-{2-[5-(2-Methoxy-ethoxy)-benzoimidazol-1-yl]-quinolin-8-yl}-piperidin-4-ylamine was incubated in dog liver microsomes under the same conditions as a positive control.
as §2, §3, §4

[10] = Metabolite identification, human liver microsome incubation of parent compound; format: in vitro ADME; details: for Relative Abundance of metabolite, HLM-NADPH ctrl: human liver microsomes, control without NADPH; for Relative Abundance of metabolite, Human Liver Microsomes: parent incubated 1 h with NADPH, relative peak height on UV chromatogram
Protocol: as §6, §2, §3, §4

[11] = Metabolite identification, dog liver microsome incubation of parent compound; format: in vitro ADME; details: for Relative Abundance of metabolite, DLM-NADPH ctrl: dog liver microsomes, control without NADPH; for Relative Abundance of metabolite, Dog Liver Microsomes: parent incubated 1 h with NADPH
Protocol: as §6, §2, §3, §4

Excretion in bile [1]	Relative Abundance of metabolite, Human Hepatocytes [4]	Relative Abundance of metabolite, Dog Hepatocytes [5]	Relative Abundance of metabolite, Dog Liver Cytosol [6]	Relative Abundance of metabolite, Dog Bile (IV) [1]	Relative Abundance of metabolite, Rat Hepatocytes [7]	Relative Abundance of metabolite, Human Liver Cytosol [3]	Relative Abundance of metabolite, Dog Plasma (IV) [8]	Relative Abundance of metabolite, Rat Liver Microsomes [9]	Relative Abundance of metabolite, RLM-NADPH ctrl [9]	Relative Abundance of metabolite, HLM-NADPH ctrl [10]	Relative Abundance of metabolite, Human Liver Microsomes [10]	Relative Abundance of metabolite, DLM-NADPH ctrl [11]	Relative Abundance of metabolite, Dog Liver Microsomes [11]	SMILES	other results
	−	+ (minor metabolite)	−	−	−	−	−							CC(CO)(COc1ccc2c(c1)ncn2-c1ccc2cccc(N3CCC(N)CC3)c2n1)COC1O[C@H](C(=O)O)[C@@H](O)[C@H](O)[C@H]1O (stereo in doubt) [Metabolite M5, 6-(3-{1-[8-(4-Amino-piperidin-1-yl)-quinolin-2-yl]-1H-benzoimidazol-5-yloxy}-2-hydroxymethyl-2-methyl-propoxy)-3,4,5-trihydroxy-tetrahydro-pyran-2-carboxylic acid]	
excreted in bile	+++ (major metabolite)	+ (minor metabolite)	−	+ (minor metabolite)	+++ (major metabolite)	−	−	−	−	−	+++ (major metabolite)	−	+ (minor metabolite)	CC(CO)(COc1ccc2c(c1)ncn2-c1ccc2cccc(N3CCC(N)CC3)c2n1)C(=O)O (stereo not drawn) [Metabolite M2, 3-{1-[8-(4-Amino-piperidin-1-yl)-quinolin-2-yl]-1H-benzoimidazol-5-yloxy}-2-hydroxymethyl-2-methyl-propionic acid]	
excreted in bile	+++ (major metabolite)	+++ (major metabolite)	+++ (major metabolite)	+++ (major metabolite)	+++ (major metabolite)	−	+++ (major metabolite)	+++ (major metabolite)	+ (minor metabolite)	+ (minor metabolite)	+++ (major metabolite)	+++ (major metabolite)	+++ (major metabolite)	CC(CO)(CO)COc1ccc2c(c1)ncn2-c1ccc2cccc(N3CCC(N)CC3)c2n1 [Metabolite M1, 2-{1-[8-(4-Amino-piperidin-1-yl)-quinolin-2-yl]-1H-benzoimidazol-5-yloxymethyl}-2-methyl-propane-1,3-diol]	Formation of M1, cofactor dependence ([9]; rat): NADPH dependent; Formation of M1, cofactor dependence ([10]; human): NADPH dependent; Metabolite status in dog liver cytosolic incubations [6]: predominant metabolite; Formation of M1, cytochrome P450 mediation ([11]; dog): not mediated by cytochrome P450; Metabolite status in dog plasma ([8]; twenty minutes to one hour after 2.0 mg/kg intravenous administration of parent): major metabolite
	−	−	−	+ (minor metabolite)	−	−	−	−	−	−	−	−	−	NC1CCN(c2cccc3ccc(-n4cnc5cc(O)ccc54)nc23)CC1 [Metabolite M8, 1-[8-(4-Amino-piperidin-1-yl)-quinolin-2-yl]-1H-benzoimidazol-5-ol]	Observation in bile ([1]; dog bile 2-4 hr post-dose of parent): observed in bile

SMILES	Excretion in bile [1]	Relative Abundance of metabolite, Human Hepatocytes [4]	Relative Abundance of metabolite, Dog Hepatocytes [5]	Relative Abundance of metabolite, Dog Liver Cytosol [6]	Relative Abundance of metabolite, Dog Bile (IV) [1]	Relative Abundance of metabolite, Rat Hepatocytes [7]	Relative Abundance of metabolite, Human Liver Cytosol [3]	Relative Abundance of metabolite, Dog Plasma (IV) [8]	Relative Abundance of metabolite, Rat Liver Microsomes [9]	Relative Abundance of metabolite, RLM-NADPH ctrl [9]	Relative Abundance of metabolite, HLM-NADPH ctrl [10]	Relative Abundance of metabolite, Human Liver Microsomes [10]	Relative Abundance of metabolite, DLM-NADPH ctrl [11]	Relative Abundance of metabolite, Dog Liver Microsomes [11]	other results
CC1(COc2ccc3c(c2)ncn3-c2ccc3cccc(N4CCC(N)CC4)c3n2)COC1 [1-{2-[5-(3-Methyl-oxetan-3-ylmethoxy)-benzoimidazol-1-yl]-quinolin-8-yl}-piperidin-4-ylamine, reference compound]	appears to be excreted in bile														Substrate for microsomal epoxide hydrolase [2]: not a substrate; Metabolites in human liver cytosolic incubations ([3]; parent incubated in human liver cytosol): No metabolites were observed
